We go through ten molecules from patent US11207312B2, “Metallo-beta-lactamase inhibitors and methods of use thereof” (priority 2017, dated 2021).

SMILES strings stand for the structures.

Series [1] concerns P. aeruginosa MB9798 (efflux+, IMP-1 plasmid). Particulars: for MB9798 MITC95 P. aeruginosa uM Efflux WT: efflux + (MB9798) strain, imipenem at 2 μg/mL, in the presence of a class A, C, D serine β-lactamase inhibitor closely related to relebactam; for Efflux ratio: fold difference between efflux+ (MB9798) and efflux− (MB9799) strains. The essentials: (§1)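 Isogenic P. aeruginosa PAO1 strains (efflux+ and multiple-efflux-pump-disrupted) carrying plasmid IMP-1, with inducible AmpC, tested by broth microdilution. Imipenem and/or ceftazidime fixed, usually at CLSI breakpoint, plus fixed class A/C β-lactamase inhibitor; titrated MBL inhibitor concentration restoring susceptibility recorded and compared between strains as efflux fold difference.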

Series [2] addresses VIM-2 (Escherichia coli, UniProt Q5U7L7). The experiment in a line: biochemical. As to conditions: CCF2-FA fluorescence assay; read-out: VIM2 IC50.
Series [3] relates to Escherichia coli expressing NDM-1 (CLB30016). Type of series: cell-based. Particulars: with imipenem 1 μg/ml; 95% inhibition of bacterial growth. The essentials:
(§2)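 Synergy with imipenem at a fixed 1 μg/ml was scored by absorbance following 22–24 h incubation at 35 °C; the potentiating concentration (MITC95) was the lowest giving 95% growth inhibition.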

In series [4] the test system is Klebsiella pneumoniae expressing VIM-1 (IHMA599644). Type of series: cell-based. As to conditions: with imipenem 1 μg/ml; 95% inhibition of bacterial growth. The gist of the method: as §2
The test system of series [5] is Serratia marcescens expressing IMP-1 (CL5741). Type of series: cell-based. As to conditions: with imipenem 1 μg/ml; 95% inhibition of bacterial growth. The essentials:
as §2

The target of series [6] is NDM-1 (Klebsiella pneumoniae, UniProt C7C422). In words: biochemical. Particulars: CCF2-FA fluorescence assay, 2 hours at 25° C. Type of series: biochemical. The essentials:
(§3)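 IC50s come from 4-parameter fits of inhibition versus inhibitor concentration, tested from 20 μM down to 0.00063 μM. Enzyme, CCF2-FA (1.25 μM) and inhibitor react 2 h at 25° C, pH 7, with 10 μM ZnSO4 and 0.005% Tween-20.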

Series [7] has as its system P. aeruginosa MB9799 (efflux-, IMP-1 plasmid). Type of series: cell-based, Pseudomonas aeruginosa. As to conditions: efflux − (MB9799) strain; imipenem at 2 μg/mL; in the presence of a class A, C, D serine β-lactamase inhibitor closely related to relebactam. The essentials:
as §1

The target in series [8] is IMP-1 (Serratia marcescens, UniProt P52699). In words: biochemical. As to conditions: CCF2-FA fluorescence assay, 2 hours at 25° C.; read-out: IMP1 IC50. The gist of the method: as §3
Series [9] concerns the target VIM-1 (Pseudomonas aeruginosa (strain ATCC 15692 / DSM 22644 / CIP 104116 / JCM 14847 / LMG 12228 / 1C / PRS 101 / PAO1), UniProt A0A0F7KYQ8). The experiment in a line: biochemical. As to conditions: CCF2-FA fluorescence assay, 2 hours at 25° C.; read-out: VIM1 IC50. The essentials:
as §3

Chain of NDM-1 (C7C422 whole entry, looked up, species assumed): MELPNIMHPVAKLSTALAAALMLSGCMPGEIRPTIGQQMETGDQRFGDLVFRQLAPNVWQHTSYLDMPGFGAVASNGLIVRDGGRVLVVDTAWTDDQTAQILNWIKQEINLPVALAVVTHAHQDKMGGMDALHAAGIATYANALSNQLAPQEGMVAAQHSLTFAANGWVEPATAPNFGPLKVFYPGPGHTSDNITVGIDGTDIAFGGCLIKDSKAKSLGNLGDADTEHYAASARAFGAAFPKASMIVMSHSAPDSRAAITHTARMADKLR
Chain of IMP-1 (P52699 whole entry, looked up, species assumed): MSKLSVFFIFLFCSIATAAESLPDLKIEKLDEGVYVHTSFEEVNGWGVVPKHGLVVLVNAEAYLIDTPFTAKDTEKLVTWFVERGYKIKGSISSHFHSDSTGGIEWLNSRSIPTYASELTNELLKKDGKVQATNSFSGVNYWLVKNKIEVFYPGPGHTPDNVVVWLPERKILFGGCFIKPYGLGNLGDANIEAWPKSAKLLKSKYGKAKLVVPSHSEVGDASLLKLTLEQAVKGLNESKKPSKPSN

Take `NCCNS(=O)(=O)C1CCN(c2ccc(S(=O)(=O)N[C@@H]3CCNC3)c(S(N)(=O)=O)c2-c2nn[nH]n2)CC1` [Example 167, (R)-4-(4-(N-(2-aminoethyl)sulfamoyl)piperidin-1-yl)-N1-(pyrrolidin-3-yl)-3-(2H-tetrazol-5-yl)benzene-1,2-disulfonamide]: the “MB9798 MITC95 P. aeruginosa uM Efflux WT” value in [1] came out at 0.78 µM. Also, the Efflux ratio in [1] was found to be 1.00. The concentration for half-maximal inhibition (IC50) in series [2] was 0.4 nM; in series [6] it was 0.25 nM; in series [8], 0.25 nM; in series [9], 0.05 nM. The “CLB30016 E. coli MITC95 NDM” value in series [3] came out at 1.17 µM. Also, in series [4], the “IHMA599644 K. pneumoniae MITC95 VIM” value was 1.56 µM. In addition, the “CL5741 S. marcescens MITC95 IMP” value in [5] was determined as 1.17 µM. The “MB9799 MITC95 P. aeruginosa uM Efflux Mutant” value in series [7] came to 0.78 µM.

Turning to `N[C@@H]1CCN(c2ccc(S(=O)(=O)N[C@@H]3CCNC3)c(S(N)(=O)=O)c2-c2nn[nH]n2)C[C@@H]1F` [Example 198, 4-((3S,4R)-4-amino-3-fluoropiperidin-1-yl)-N1-((R)-pyrrolidin-3-yl)-3-(2H-tetrazol-5-yl)benzene-1,2-disulfonamide], the “MB9798 MITC95 P. aeruginosa uM Efflux WT” value in series [1] stood at 0.78 µM. Moreover, the Efflux ratio in series [1] is on record as 1.00. The IC50 worked out at 11 nM in [2], 1.82 nM in series [6], 5.62 nM in series [8] and 0.2 nM in series [9]. Further, the “CLB30016 E. coli MITC95 NDM” value in series [3] is 0.39 µM. In series [4], the “IHMA599644 K. pneumoniae MITC95 VIM” value amounted to 0.39 µM. Further, in series [5], the “CL5741 S. marcescens MITC95 IMP” value stood at 0.20 µM. Further, the “MB9799 MITC95 P. aeruginosa uM Efflux Mutant” value in series [7] is 0.78 µM.

Turning to `NCC1CCCN(c2ccc(S(=O)(=O)NC[C@H](O)CN)c(S(N)(=O)=O)c2-c2nn[nH]n2)CC1` (stereo partly drawn) [Example 139, N1-((R)-3-amino-2-hydroxypropyl)-4-(4-(aminomethyl)azepan-1-yl)-3-(2H-tetrazol-5-yl)benzene-1,2-disulfonamide bis(2,2,2-trifluoroacetate)], in [1], the “MB9798 MITC95 P. aeruginosa uM Efflux WT” value turned out to be 1.56 µM. For the same molecule, the Efflux ratio in series [1] was determined as 2.00. Moreover, the 50% inhibitory concentration (IC50) in series [2] worked out at 4.52 nM; in series [6], 18.2 nM; in [8], 18.5 nM; in series [9] it was 0.39 nM. Besides, the “CLB30016 E. coli MITC95 NDM” value in series [3] came to 0.78 µM. Besides, the “IHMA599644 K. pneumoniae MITC95 VIM” value in series [4] came to 1.56 µM. Moreover, the “CL5741 S. marcescens MITC95 IMP” value in series [5] is 0.78 µM. In addition, the “MB9799 MITC95 P. aeruginosa uM Efflux Mutant” value in series [7] worked out at 0.78 µM.

With `NC[C@@H](O)CNS(=O)(=O)c1ccc(N2C[C@H]3CNC[C@H]3C2)c(-c2nn[nH]n2)c1S(N)(=O)=O` [Example 161, N1-((R)-3-amino-2-hydroxypropyl)-4-((3aR,6aS)-hexahydropyrrolo[3,4-c]pyrrol-2(1H)-yl)-3-(2H-tetrazol-5-yl)benzene-1,2-disulfonamide], the “MB9798 MITC95 P. aeruginosa uM Efflux WT” value in series [1] was 12.50 µM. Also, in series [1], the Efflux ratio was found to be 2.00. Further, the IC50 in series [2] was 14.9 nM; in [6], 12.2 nM; in series [8], 45.4 nM; in [9], 0.89 nM. Besides, the “CLB30016 E. coli MITC95 NDM” value in series [3] came out at 1.56 µM. Also, the “IHMA599644 K. pneumoniae MITC95 VIM” value in series [4] amounted to 1.56 µM. Also, the “CL5741 S. marcescens MITC95 IMP” value in [5] turned out to be 3.13 µM. Also, the “MB9799 MITC95 P. aeruginosa uM Efflux Mutant” value in [7] is 6.25 µM.

With `NC[C@@H](O)CNS(=O)(=O)c1ccc(N2CCC3(CC2)CC3N)c(-c2nn[nH]n2)c1S(N)(=O)=O` (stereo partly shown) [Example 12], the “MB9798 MITC95 P. aeruginosa uM Efflux WT” value in series [1] is 1.56 µM. In addition, the Efflux ratio in [1] was found to be 2.00. Also, the half-inhibitory concentration (IC50) came to 17.6 nM in series [2], 1.51 nM in series [6], 4.08 nM in series [8] and 1.48 nM in series [9]. Moreover, the “CLB30016 E. coli MITC95 NDM” value in [3] was 0.78 µM. The “IHMA599644 K. pneumoniae MITC95 VIM” value in series [4] was found to be 1.56 µM. Moreover, the “CL5741 S. marcescens MITC95 IMP” value in series [5] is 1.56 µM. For the same molecule, in [7], the “MB9799 MITC95 P. aeruginosa uM Efflux Mutant” value was determined as 0.78 µM.

Regarding `NC[C@@H](O)CNS(=O)(=O)c1ccc(N2CCC(c3ncc[nH]3)CC2)c(-c2nn[nH]n2)c1S(N)(=O)=O` [Example 201, (R)-4-(4-(1H-imidazol-2-yl)piperidin-1-yl)-N1-(3-amino-2-hydroxypropyl)-3-(2H-tetrazol-5-yl)benzene-1,2-disulfonamide], the “MB9798 MITC95 P. aeruginosa uM Efflux WT” value in series [1] was found to be 1.56 µM. The Efflux ratio in series [1] turned out to be 2.00. Moreover, the IC50 is 0.64 nM in series [2], 1.83 nM in series [6], 0.77 nM in series [8] and 0.26 nM in series [9]. In addition, the “CLB30016 E. coli MITC95 NDM” value in series [3] was 0.39 µM. Besides, the “IHMA599644 K. pneumoniae MITC95 VIM” value in series [4] worked out at 1.56 µM. Further, the “CL5741 S. marcescens MITC95 IMP” value in series [5] was 0.78 µM. In addition, the “MB9799 MITC95 P. aeruginosa uM Efflux Mutant” value in series [7] was determined as 0.78 µM.

In the case of `NC(=O)[C@H]1CN(c2ccc(S(=O)(=O)N[C@@H]3CCNC3)c(S(N)(=O)=O)c2-c2nn[nH]n2)CCN1` [Example 197, (R)-4-(4-(N-((R)-pyrrolidin-3-yl)sulfamoyl)-3-sulfamoyl-2-(2H-tetrazol-5-yl)phenyl)piperazine-2-carboxamide], the “MB9798 MITC95 P. aeruginosa uM Efflux WT” value in series [1] turned out to be 3.13 µM. Besides, the Efflux ratio in series [1] is on record as 2.00. Further, the half-inhibitory concentration (IC50) in series [2] was found to be 1.89 nM; in series [6] it was 1.44 nM; in [8], 9.95 nM; in [9], 0.74 nM. In series [3], the “CLB30016 E. coli MITC95 NDM” value was 0.29 µM. For the same molecule, the “IHMA599644 K. pneumoniae MITC95 VIM” value in series [4] was found to be 1.56 µM. In addition, in series [5], the “CL5741 S. marcescens MITC95 IMP” value came to 0.39 µM. For the same molecule, the “MB9799 MITC95 P. aeruginosa uM Efflux Mutant” value in series [7] worked out at 1.56 µM.

Turning to `C[C@H](CN)NS(=O)(=O)c1ccc(N2CCC(CCN)CC2)c(-c2nn[nH]n2)c1S(N)(=O)=O` [Example 185, (R)-4-(4-(2-aminoethyl)piperidin-1-yl)-N1-(1-aminopropan-2-yl)-3-(2H-tetrazol-5-yl)benzene-1,2-disulfonamide], the “MB9798 MITC95 P. aeruginosa uM Efflux WT” value in series [1] came to 0.78 µM. The Efflux ratio in [1] is 1.00. Also, the concentration for half-maximal inhibition (IC50) in [2] was determined as 0.71 nM; in series [6], 0.33 nM; in series [8], 0.6 nM; in [9], 0.04 nM. Besides, the “CLB30016 E. coli MITC95 NDM” value in series [3] was 0.78 µM. For the same molecule, the “IHMA599644 K. pneumoniae MITC95 VIM” value in [4] stood at 1.56 µM. Moreover, the “CL5741 S. marcescens MITC95 IMP” value in [5] amounted to 1.56 µM. The “MB9799 MITC95 P. aeruginosa uM Efflux Mutant” value in [7] was determined as 0.78 µM.

For the molecule `NS(=O)(=O)c1c(S(=O)(=O)N[C@@H]2CCNC2)ccc(N2CCNC2=S)c1-c1nn[nH]n1` [Example 191, (R)—N1-(pyrrolidin-3-yl)-3-(2H-tetrazol-5-yl)-4-(2-thioxoimidazolidin-1-yl)benzene-1,2-disulfonamide], the “MB9798 MITC95 P. aeruginosa uM Efflux WT” value in [1] came out at 6.25 µM. In addition, the Efflux ratio in series [1] was 4.00. For the same molecule, the IC50 turned out to be 1.15 nM in series [2], 0.94 nM in [6], 25.2 nM in series [8] and 0.21 nM in series [9]. In addition, the “CLB30016 E. coli MITC95 NDM” value in [3] is 0.78 µM. The “IHMA599644 K. pneumoniae MITC95 VIM” value in series [4] was 3.13 µM. Further, the “CL5741 S. marcescens MITC95 IMP” value in [5] worked out at 1.56 µM. The “MB9799 MITC95 P. aeruginosa uM Efflux Mutant” value in [7] amounted to 1.56 µM.

On to `NCC1=CCN(c2ccc(S(=O)(=O)NC[C@H](O)CN)c(S(N)(=O)=O)c2-c2nn[nH]n2)CC1` [Example 175, (R)-N1-(3-amino-2-hydroxypropyl)-4-(4-(aminomethyl)-5,6-dihydropyridin-1(2H)-yl)-3-(2H-tetrazol-5-yl)benzene-1,2-disulfonamide], for which, in series [1], the “MB9798 MITC95 P. aeruginosa uM Efflux WT” value is 1.56 µM. The Efflux ratio in [1] worked out at 2.00. Further, the IC50 in [2] was found to be 4.18 nM; in series [6], 2.55 nM; in series [8] it was 3.66 nM; in series [9], 0.24 nM. Also, the “CLB30016 E. coli MITC95 NDM” value in [3] is 0.39 µM. Besides, the “IHMA599644 K. pneumoniae MITC95 VIM” value in series [4] is 1.56 µM. Moreover, the “CL5741 S. marcescens MITC95 IMP” value in [5] amounted to 0.78 µM. For the same molecule, the “MB9799 MITC95 P. aeruginosa uM Efflux Mutant” value in [7] was 0.78 µM.

As a reminder, the IC50 is the concentration that inhibits the measured activity by half.
